Experiment: xn = mol fraction of the nth substance listed
Conditions: 101 kPa, Liquid

CN(C)C=O [dimethylformamide] + Cc1ccccc1
Conditions | mass density [kg/m3]
293.15 K, x2 = 0 | 948.58
293.15 K, x2 = 0.0587 | 943.21
293.15 K, x2 = 0.0924 | 940.15
293.15 K, x2 = 0.1596 | 934.15
293.15 K, x2 = 0.2106 | 929.65
293.15 K, x2 = 0.2706 | 924.43
293.15 K, x2 = 0.3202 | 920.16
293.15 K, x2 = 0.3823 | 914.89
293.15 K, x2 = 0.4504 | 909.2
293.15 K, x2 = 0.5171 | 903.73
293.15 K, x2 = 0.5636 | 899.97
293.15 K, x2 = 0.7212 | 887.54
293.15 K, x2 = 0.7647 | 884.19
293.15 K, x2 = 0.8114 | 880.65
293.15 K, x2 = 0.8715 | 876.16
293.15 K, x2 = 0.9412 | 871.04
303.15 K, x2 = 0 | 939.46
303.15 K, x2 = 0.0451 | 935.32
303.15 K, x2 = 0.1012 | 930.23
303.15 K, x2 = 0.1674 | 924.31
303.15 K, x2 = 0.2151 | 920.11
303.15 K, x2 = 0.2855 | 913.98
303.15 K, x2 = 0.3484 | 908.59
303.15 K, x2 = 0.4188 | 902.65
303.15 K, x2 = 0.4876 | 896.96
303.15 K, x2 = 0.5508 | 891.8
303.15 K, x2 = 0.6134 | 886.77
303.15 K, x2 = 0.6745 | 881.95
303.15 K, x2 = 0.7512 | 876
303.15 K, x2 = 0.8121 | 871.36
303.15 K, x2 = 0.8614 | 867.66
303.15 K, x2 = 0.9318 | 862.47
313.15 K, x2 = 0 | 930.12
313.15 K, x2 = 0.051 | 925.45
313.15 K, x2 = 0.1112 | 920.02
313.15 K, x2 = 0.1984 | 912.27
313.15 K, x2 = 0.2511 | 907.67
313.15 K, x2 = 0.3147 | 902.18
313.15 K, x2 = 0.3784 | 896.76
313.15 K, x2 = 0.4322 | 892.26
313.15 K, x2 = 0.5053 | 886.23
313.15 K, x2 = 0.5721 | 880.8
313.15 K, x2 = 0.6427 | 875.17
313.15 K, x2 = 0.7077 | 870.09
313.15 K, x2 = 0.7812 | 864.43
313.15 K, x2 = 0.8419 | 859.84
313.15 K, x2 = 0.8932 | 856.01
313.15 K, x2 = 0.9588 | 851.2
323.15 K, x2 = 0 | 920.55
323.15 K, x2 = 0.044 | 916.54
323.15 K, x2 = 0.1062 | 910.94
323.15 K, x2 = 0.1721 | 905.1
323.15 K, x2 = 0.2314 | 899.91
323.15 K, x2 = 0.2985 | 894.12
323.15 K, x2 = 0.3647 | 888.5
323.15 K, x2 = 0.4215 | 883.74
323.15 K, x2 = 0.4874 | 878.3
323.15 K, x2 = 0.5484 | 873.34
323.15 K, x2 = 0.6014 | 869.09
323.15 K, x2 = 0.6647 | 864.08
323.15 K, x2 = 0.7314 | 858.9
323.15 K, x2 = 0.7951 | 854.03
323.15 K, x2 = 0.8654 | 848.74
323.15 K, x2 = 0.9321 | 843.83
333.15 K, x2 = 0 | 910.75
333.15 K, x2 = 0.0512 | 906.14
333.15 K, x2 = 0.112 | 900.72
333.15 K, x2 = 0.1784 | 894.89
333.15 K, x2 = 0.2351 | 889.98
333.15 K, x2 = 0.2985 | 884.55
333.15 K, x2 = 0.3514 | 880.08
333.15 K, x2 = 0.4122 | 875
333.15 K, x2 = 0.4841 | 869.09
333.15 K, x2 = 0.5451 | 864.14
333.15 K, x2 = 0.6015 | 859.64
333.15 K, x2 = 0.6641 | 854.71
333.15 K, x2 = 0.7321 | 849.44
333.15 K, x2 = 0.7951 | 844.64
333.15 K, x2 = 0.8621 | 839.62
333.15 K, x2 = 0.9245 | 835.02
343.15 K, x2 = 0 | 900.73
343.15 K, x2 = 0.0632 | 895.11
343.15 K, x2 = 0.1201 | 890.11
343.15 K, x2 = 0.1854 | 884.45
343.15 K, x2 = 0.2554 | 878.46
343.15 K, x2 = 0.3114 | 873.73
343.15 K, x2 = 0.3784 | 868.14
343.15 K, x2 = 0.4552 | 861.82
343.15 K, x2 = 0.5114 | 857.28
343.15 K, x2 = 0.5662 | 852.9
343.15 K, x2 = 0.6212 | 848.55
343.15 K, x2 = 0.6812 | 843.88
343.15 K, x2 = 0.7499 | 838.61
343.15 K, x2 = 0.8021 | 834.67
343.15 K, x2 = 0.8654 | 829.95
343.15 K, x2 = 0.9421 | 824.34
353.15 K, x2 = 0 | 890.48
353.15 K, x2 = 0.0451 | 886.53
353.15 K, x2 = 0.1023 | 881.55
353.15 K, x2 = 0.1654 | 876.13
353.15 K, x2 = 0.2215 | 871.36
353.15 K, x2 = 0.2865 | 865.91
353.15 K, x2 = 0.3412 | 861.36
353.15 K, x2 = 0.4012 | 856.44
353.15 K, x2 = 0.4687 | 850.98
353.15 K, x2 = 0.5214 | 846.76
353.15 K, x2 = 0.5841 | 841.82
353.15 K, x2 = 0.6474 | 836.89
353.15 K, x2 = 0.7142 | 831.77
353.15 K, x2 = 0.7784 | 826.93
353.15 K, x2 = 0.8451 | 821.96
353.15 K, x2 = 0.9012 | 817.86

Source: the NIST ThermoML archive (doi:10.1016/j.jct.2006.07.022)
